Results taken from ChEMBL document CHEMBL1135381, “Synthesis and structure-activity relationship of 2-(aminoalkyl)-2,3,3a,8-tetrahydrodibenzo[c,f]isoxazolo[2,3-a]azepine derivatives: a novel series of 5-HT(2A/2C) receptor antagonists. Part 2” (Bioorg Med Chem Lett, 2002).

system: Rattus norvegicus; experiment: In vivo activity in mCPP challenge test were performed in male Wistar rats by subcutaneous administration; type: functional; details: sc

Structure (SMILES) | ED50 [mg/kg]
CN(C)CC1CC2c3c(cccc3C(F)(F)F)Cc3ccccc3N2O1 (stereo unspecified) | 2.5

target: 5-hydroxytryptamine receptor 2A (Homo sapiens, UniProt P28223); experiment: Binding affinity at human cloned 5-hydroxytryptamine 2A receptor expressed in L929 cells by [125I]R91150 displacement.; type: cell-based; details: not given
Sequence (P28223 whole entry): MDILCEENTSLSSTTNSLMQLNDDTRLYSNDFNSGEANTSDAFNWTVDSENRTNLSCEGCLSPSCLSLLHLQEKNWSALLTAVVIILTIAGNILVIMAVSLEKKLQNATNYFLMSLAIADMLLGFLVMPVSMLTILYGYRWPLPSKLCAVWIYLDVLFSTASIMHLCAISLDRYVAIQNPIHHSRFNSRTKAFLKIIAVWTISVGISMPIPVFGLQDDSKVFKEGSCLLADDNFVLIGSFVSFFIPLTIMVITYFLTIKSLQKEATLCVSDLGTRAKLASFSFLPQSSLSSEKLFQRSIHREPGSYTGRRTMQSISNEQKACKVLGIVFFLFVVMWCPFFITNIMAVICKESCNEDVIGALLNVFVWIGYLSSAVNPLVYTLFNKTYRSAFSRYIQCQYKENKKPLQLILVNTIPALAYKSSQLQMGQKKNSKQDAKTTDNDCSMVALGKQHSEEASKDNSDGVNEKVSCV

IC50 [nM] | Structure (SMILES)
10.5 | Cc1ccc2c(c1)Cc1ccccc1N1OC(CN(C)C)CC21 (stereo unspecified)
1.15 | CN(C)CC1CC2c3ccccc3Cc3ccc(F)cc3N2O1 (stereo unspecified)

target: Serotonin 3 (5-HT3) receptor; experiment: Binding affinity for human cloned 5-hydroxytryptamine 3 receptor; type: protein-complex assay; details: not given

pIC50 | Structure (SMILES)
< 6 | CN(C)CC1CC2c3ccccc3Cc3ccc(F)cc3N2O1 (stereo unspecified)

target: D(2) dopamine receptor (Rattus norvegicus, UniProt P61169); experiment: Binding affinity for rat Dopamine receptor D2; details: not given
Sequence (P61169 whole entry): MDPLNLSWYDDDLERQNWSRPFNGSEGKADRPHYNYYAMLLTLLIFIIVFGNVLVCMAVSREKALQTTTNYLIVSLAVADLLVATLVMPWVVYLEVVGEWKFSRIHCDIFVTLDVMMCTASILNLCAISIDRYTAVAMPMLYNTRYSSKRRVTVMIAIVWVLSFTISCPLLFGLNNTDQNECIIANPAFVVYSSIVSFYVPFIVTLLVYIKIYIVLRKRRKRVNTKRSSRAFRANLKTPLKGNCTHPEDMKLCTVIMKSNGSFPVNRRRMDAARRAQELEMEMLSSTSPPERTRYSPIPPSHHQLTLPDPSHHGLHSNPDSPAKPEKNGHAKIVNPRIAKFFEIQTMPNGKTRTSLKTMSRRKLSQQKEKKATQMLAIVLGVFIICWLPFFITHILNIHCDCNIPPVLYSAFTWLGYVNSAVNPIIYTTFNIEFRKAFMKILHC

IC50 [nM] | Structure (SMILES)
> 1000 | CN(C)CC1CC2c3ccccc3Cc3ccc(F)cc3N2O1 (stereo unspecified)

target: T1, 5-hydroxytryptamine receptor 2C (Rattus norvegicus) (UniProt P08909); experiment: In vivo activity in rat mCPP challenge test following p.o. administration.; type: functional, organism-based; details: not given
T1 sequence (whole entry): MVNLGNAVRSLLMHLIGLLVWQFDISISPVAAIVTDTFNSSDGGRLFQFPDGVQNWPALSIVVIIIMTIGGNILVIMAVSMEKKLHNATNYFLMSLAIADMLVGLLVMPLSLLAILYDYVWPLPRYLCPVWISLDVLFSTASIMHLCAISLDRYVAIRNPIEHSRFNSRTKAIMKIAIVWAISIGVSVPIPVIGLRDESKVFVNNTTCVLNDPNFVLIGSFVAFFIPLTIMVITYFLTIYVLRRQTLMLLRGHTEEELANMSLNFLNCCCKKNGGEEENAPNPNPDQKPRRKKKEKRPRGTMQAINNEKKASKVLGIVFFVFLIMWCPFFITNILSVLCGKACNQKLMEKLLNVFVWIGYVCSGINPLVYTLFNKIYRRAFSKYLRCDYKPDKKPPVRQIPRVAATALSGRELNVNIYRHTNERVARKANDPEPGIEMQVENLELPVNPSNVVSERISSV

ED50 [mg/kg] | Structure (SMILES)
> 2.5 | COc1ccc2c(c1)C1CC(CN(C)C)ON1c1ccccc1C2 (stereo unspecified)
> 2.5 | CN(C)CC1CC2c3cccc(C(F)(F)F)c3Cc3ccccc3N2O1 (stereo unspecified)
2.5 | CN(C)CC1CC2c3ccccc3Cc3cc(F)ccc3N2O1 (stereo unspecified)
2.5 | Cc1ccc2c(c1)Cc1ccccc1N1OC(CN(C)C)CC21 (stereo unspecified)
> 2.5 | CN(C)CC1CC2c3ccccc3Cc3cccc(Cl)c3N2O1 (stereo unspecified)
2.5 | CN(C)CC1CC2c3ccccc3Cc3ccc(F)cc3N2O1 (stereo unspecified)
2.5 | CN(C)CC1CC2c3ccccc3Cc3c(F)cccc3N2O1 (stereo unspecified)
2.5 | CN(C)CC1CC2c3ccccc3Cc3ccc(Br)cc3N2O1 (stereo unspecified)
> 2.5 | CN(C)CC1CC2c3c(cccc3C(F)(F)F)Cc3ccccc3N2O1 (stereo unspecified)
> 2.5 | Cc1cccc2c1C1CC(CN(C)C)ON1c1ccccc1C2 (stereo unspecified)
> 2.5 | Cc1cccc2c1Cc1ccccc1C1CC(CN(C)C)ON21 (stereo unspecified)
